Measured values reported in US7015312B1, “Antibodies to the protein product encoded by ORF3 of the TRP-1 gene and compositions and kits thereof” (The United States of America as represented by the …, priority 1996, dated 2006).
Entries after “also recorded” stand apart in the source; their conditions may differ.

Legend:
Format in all cases: cell-based, human
[1] = test system: TIL586; assay: GM-CSF release by TIL586 co-incubated with peptide-pulsed target cells; parameters: GM-CSF release: unit not given here; details: for GM-CSF release: 586EBV cells pulsed with peptide 1 μg/ml for 90 min, co-incubated with TIL586, TIL586 alone subtracted; for Recognition by TIL586 / stimulation of GM-CSF release (in words): peptide pulsed onto 586EBV B cells (A31+)
Protocol: Transfection and cytokine assays were performed as FIG. 1A and b. 586mel and 397mel were included as positive and negative controls for the reactivity of TIL586. The ORF3P peptide was incubated with 586EBV (A31+) and T2 (non-A31) cells at a concentration of 1 μg/ml for 90 min.
The following chemicals and reagents were purchased from the sources indicated: RPMI 1640, AIM-V media, Lipofectamine, G418 (GIBCO BRL, Gaithersberg, Md.); the eukaryotic expression vector pCR3 (Invitrogen, San Diego, […] containing 120 IU/ml of IL-2. TIL586 was added and incubated for additional 18–24 h, 100 μl of supernatant was collected for GM-CSF assay.

[2] = test system: TIL586; assay: Cytotoxic lysis of peptide-pulsed target cells by TIL586, 4-h chromium release assay; details: for % Specific lysis (E:T 20:1): 586EBV cells pulsed with peptide 1 μg/ml, TIL586 E:T 20:1, 4-h chromium release; for Sensitization of peptide-pulsed 586EBV B cells for lysis by TIL586 (in words): peptide pulsed onto 586EBV B cells
Protocol: 586EBV B cells were incubated with ORF3P (pep) (—▴—), with an irrelevant peptide (ipep) (—●—) without peptide (—Δ—) and T2 cells pulsed with ORF3P (—∘—) as marked. After incubation, TIL586 was added and mixed with the target cells. Cytolytic activity of TIL586 was measured in a 4 h chromium release assay.
586EBV cells were separately incubated with serial dilutions of ORF3P (pep) (—▴—) or irrelevant peptides (ipep) (—●—) and T2 cells with the ORF3P (peptide (—∘—) for 90 min. The cytolytic activity of TIL586 was evaluated in a 4h […] release assay at an effector: target (E:T) ratio of 40:1.
(§1) Cytolytic assays was done as previously described (Kawakami, Y et al., 1994, Proc. Natl. Acad. Sci. USA 91:6458–62). Briefly, the target cells were labeled with chromium for 90 min. After washing three times, the cells were incubated with peptides at a concentration of 1 μg/ml for 90 min. The cells were washed again, counted, and then mixed with TIL586 at the indicated ratio of effector : targets (E:T). Chromium release was measured after 4 h incubation. The peptides were synthesized by a solid-phase method using a peptide synthesizer (Model AMS 422, Gibson Co., Inc., Worthington, Ohio). Some peptides were purified by HPLC and had greater than 98% in purity. For titration of the ORF3P peptide recognized by TIL586, 586EBV B cells were incubated with various concentrations of the purified ORF3P peptide. Percentage of specific lysis was determined from the equation (A-B)/(C-B)×100 where A is lysis of 586EBV B cells by TIL586 in the presence of a peptide, B is spontaneous release from 586EBV B cells in presence of the same peptide but in the absence of effector cells, and C is the maximum chromium release.

[3] = test system: TIL586; assay: GM-CSF release by TIL586 co-incubated with peptide-pulsed target cells
[4] = test system: TIL586; assay: Cold target inhibition of lysis of 51Cr-labeled 586mel by TIL586; details: TIL586, E:T 20:1, 4 h
Protocol: 586EBV cells pulsed with ORF3P (—▴—), with irrelevant peptide (—Δ—) and T2 cells loaded with ORF3P (—□—) were used as “cold” target cells. After washing, “hot” and “cold” target cells were counted again and mixed at the “cold”/“hot” ratio of 1:1, 5:1, 10:1, and 20:1. TIL586 was added at an effector; “hot” target (E:T) ratio of 20:1. Chromium release was measured after 4 h incubation.
as §1, with “For titration of the ORF3P peptide recognized by TIL586, 586EBV B cells were incubated with various concentrations of the purified ORF3P peptide.” left out, “release. […]” for “release.”

[5] = test system: TIL1200; assay: Cold target inhibition of lysis of 51Cr-labeled 624mel by TIL1200; details: TIL1200 (gp100, HLA-A2), E:T 30:1, 4 h
Protocol: “Cold” and “hot” target cells were mixed at the indicated ratios. TIL1200 was added at an effector: hot target (E:T) ratio of 30:1. Cytolytic activity of TIL1200 was evaluated in a 4-h ^51Cr release assay.
as §1, with “release. […]” for “release.”

[6] = test system: T cell clones from TIL586; assay: GM-CSF release by T cell clones generated from the TIL586 cell line; details: six T cell clones, GM-CSF assay, 18–24 h
Protocol: FIGS. 6A–6D show recognition of the antigenic peptide T cell clones from the TIL586 cell line. T cell clones were generated from the TIL586 cell line. 586EBV B cells were pulsed with the ORF3P peptide or irrelevant peptide. T cell clone or TIL586 cells were added and coincubated. For 586 mel, 397 mel/A31^+ tumors and melanocyte NHEM680 cells, 1×10^5 cells per well were incubated with 1×10^5 cells clones, TIL586-C1 (FIG. 6A), TIL586-C4 (FIG. 6B) and TIL586-C6 (FIG. 6C) or TIL586 (FIG. 6D) for 18–24 h, respectively. GM-CSF assay was performed as described in FIG. 1B.
To address the question of whether TIL586 recognized a naturally processed peptide which is similar or identical to the ORF3P peptide on the tumor cells, the ability of the ORF3P peptide pulsed 586EBV B cells to inhibit lysis of ^51Cr-labeled 586mel in a cold-target inhibition assay was examined. […] To further test if T cell clones can recognize both the ORF3P peptide pulsed 586EBV B cells and tumor cell lines, T cell clones were generated from the TIL586 cell line by limiting dilution (1 cell/well in 96-well round bottom microplate) and further expanded in culture. […] T cell clones were further expanded in AIM-V medium containing 6000 IU/ml IL-2. […]

[7] = 586EBV cells, TIL586 E:T 40:1, 4 h

Sequence	GM-CSF release [1]	% Specific lysis (E:T 20:1) [2] [%]	Recognition by TIL586 / stimulation of GM-CSF release (in words) [1]	further results
ACDQRVLIVR (listed as Homo sapiens) [synthetic peptide from ORF1 (gp75)]	<50	<10		
ACDQRVLIVRR (listed as Homo sapiens) [synthetic peptide from ORF1 (gp75)]	<50	<10		
MRLQRQFLR (listed as Homo sapiens) [modified ORF3P, anchor residue substitution]			did not recognize	
AACDQRVLIVR (listed as Homo sapiens) [synthetic peptide from ORF1 (gp75)]	250	<10	very weakly induced GM-CSF release	Sensitization of target cells for lysis by TIL586 at high peptide concentration ([2]; 10 μg/ml of peptide, data not shown): did not sensitize the target cells for lysis; Sensitization of peptide-pulsed 586EBV B cells for lysis by TIL586 (in words) [2]: failed to sensitive peptide-loaded 586EBV B for lysis by TIL586; Peptide concentration needed for weak stimulation of cytokine release from TIL586 ([3]; incubated with 586EBV B cells): > 1 µg/mL
MALQRQFLR (listed as Homo sapiens) [modified ORF3P, substitution Ser with Ala at position 2]			recognized	
CGTCRPGWR (listed as Homo sapiens) [synthetic peptide from ORF1 (gp75)]	<50	<10		
VWPLRFFNR (listed as Homo sapiens) [synthetic peptide from ORF1 (gp75)]	<50	<10		
LWDVPSWLER (listed as Homo sapiens)	<50	<10		
ISLQRQFLR (listed as Homo sapiens)			still recognized by TIL586 at comparable concentrations to that of the wild-type peptide	
MSLQRQFLR (listed as Homo sapiens) [ORF3P, antigenic nonamer peptide derived from ORF3 of the gp75 (TRP-1) gene]			strongly recognized by TIL586; also recorded: significantly increased	Recognition by TIL586 / GM-CSF release, peptide on T2 cells ([1]; peptide loaded onto T2 (non-HLA-A31) cells): not when peptide was loaded onto T2 (non-HLA-A31) cells; Peptide concentration at which lytic activity was still detected [2, 7]: 1 nM; Peptide concentration giving maximal sensitization for lysis [2, 7]: 100 nM; Lysis by TIL586 of T2 cells pulsed with peptide ([2]; T2 (non-A31) cells pulsed with peptide): failed to lyse; Sensitization of peptide-pulsed 586EBV B cells for lysis by TIL586 (in words) [2]: lysed; Inhibition of lysis of 51Cr-labeled 586mel by cold peptide-pulsed 586EBV B cells [4]: Significant inhibition; Inhibition of lysis of 51Cr-labeled 624mel by cold peptide-pulsed 586EBV B cells [5]: did not inhibit; Recognition of peptide-pulsed 586EBV B cells by T cell clones from TIL586 [6]: capable of recognizing; also recorded: recognized by six T cell clones derived from TIL586; Recognition by TIL586 / GM-CSF release, peptide on 1510EBV cells ([3]; peptide pulsed onto allogeneic 1510EBV B (A31+) cells): observed only when the peptide was pulsed onto autologous 586EBV B cells and 1510EBV B (A31+) cells; also recorded: significantly increased
SGHNCGTCR (listed as Homo sapiens) [synthetic peptide from ORF1 (gp75)]	<50	<10		
MSLQRQFLRT (listed as Homo sapiens) [peptide from ORF3]			did not recognize	
LSKEEKNHFVR (listed as Homo sapiens) [synthetic peptide from ORF1 (gp75)]	<50	<10		
IVRRNLLDLSK (listed as Homo sapiens) [synthetic peptide from ORF1 (gp75)]	<50	<10		
SLQRQFLRT (listed as Homo sapiens) [peptide from ORF3]			did not recognize	
AISQDTTVGR (listed as Homo sapiens) [synthetic peptide from ORF1 (gp75)]	<50	<10		
MSLQRQFLE (listed as Homo sapiens) [modified ORF3P, anchor residue substitution]			did not recognize	
DDREVWPLR (listed as Homo sapiens) [synthetic peptide from ORF1 (gp75)]	<50	<10		
MLLQRQFLR (listed as Homo sapiens) [modified ORF3P, anchor residue substitution]			did not recognize	
MSLQRLFLR (listed as Homo sapiens) [modified ORF3P, anchor residue substitution]			did not recognize	
DQRVLIVRR (listed as Homo sapiens) [synthetic peptide from ORF1 (gp75)]	<50	<10		
MSLQRQFLK (listed as Homo sapiens) [modified ORF3P, anchor residue substitution]			did not recognize	
